What follows are compounds tested against T1, PDE10A2 (Homo sapiens, UniProt Q9Y233) (assay: PDE10A2 inhibition, Scintillation Proximity Assay (SPA)). Details: catalytic domain of human PDE10A2 (S449-D789), 0.25 nM enzyme, 50 nM cGMP + 50 nM [3H]-cGMP, 30 minutes at room temperature.
T1 construct: residues serine 449 to aspartate 789; His6 (H6) with thrombin cleavage site (N, cleaved yes); made in house; host or cells: E. coli BL21(DE3) pLysS
Type: biochemical
Procedure, shortened: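 Human PDE10A2 catalytic domain (S449-D789, E. coli-expressed) at 0.25 nM hydrolysed 50 nM cGMP plus 50 nM [3H]-cGMP in 20 mM HEPES/10 mM MgCl2, pH 7.5, for 30 min at room temperature. Stopped with YSi-SPA beads in zinc sulphate; scintillation counts over a concentration range gave IC50.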

T1 sequence (Q9Y233 715-1055): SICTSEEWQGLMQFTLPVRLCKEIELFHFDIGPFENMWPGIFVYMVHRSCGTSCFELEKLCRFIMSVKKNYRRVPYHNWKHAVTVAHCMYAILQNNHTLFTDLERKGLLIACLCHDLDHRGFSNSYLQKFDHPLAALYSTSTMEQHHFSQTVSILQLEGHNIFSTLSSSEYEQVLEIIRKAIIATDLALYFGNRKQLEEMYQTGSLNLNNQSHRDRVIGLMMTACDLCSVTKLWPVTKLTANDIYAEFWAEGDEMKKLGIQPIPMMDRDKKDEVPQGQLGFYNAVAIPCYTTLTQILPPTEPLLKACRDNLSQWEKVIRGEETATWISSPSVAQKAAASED

Row | SMILES | IC50
1 | N#Cc1cccc(-n2nccc2-c2nn(-c3cccc(S(=O)(=O)C(F)(F)F)c3)ccc2=O)c1 [Example 284, 3-{5-[4-Oxo-1-(3-trifluoromethanesulfonyl-phenyl)-1,4-dihydro-pyridazin-3-yl]-pyrazol-1-yl}-benzonitrile] | 11 nM
2 | N#Cc1cccc(-n2ccc(=O)c(-c3ccnn3-c3cccc(Cl)c3)n2)c1 [Example 287, 3-{3-[2-(3-Chloro-phenyl)-2H-pyrazol-3-yl]-4-oxo-4H-pyridazin-1-yl}-benzonitrile] | 15 nM
3 | CC(=O)Nc1cccc(-n2ccc(=O)c(-c3ccnn3-c3ccccc3F)n2)c1 [Example 292, N-(3-{3-[2-(2-Fluoro-phenyl)-2H-pyrazol-3-yl]-4-oxo-4H-pyridazin-1-yl}-phenyl)-acetamide] | 21 nM
4 | CC(=O)N(C)c1cccc(-n2ccc(=O)c(-c3ccnn3-c3ccccc3F)n2)c1 [Example 294, N-(3-{3-[2-(2-Fluoro-phenyl)-2H-pyrazol-3-yl]-4-oxo-4H-pyridazin-1-yl}-phenyl)-N-methyl-acetamide] | 6 nM
5 | O=C(OCCF)c1cccc(-n2ccc(=O)c(-c3ccnn3-c3cccc4ccccc34)n2)c1 [Example 295, 3-[3-(2-Naphthalen-1-yl-2H-pyrazol-3-yl)-4-oxo-4H-pyridazin-1-yl]-benzoic acid 2-fluoro-ethyl ester] | 2 nM
6 | CC(O)c1cccc(-n2ccc(=O)c(-c3ccnn3-c3ccccc3F)n2)c1 (stereo not drawn) [Example 298, 3-[2-(2-Fluoro-phenyl)-2H-pyrazol-3-yl]-1-[3-(1-hydroxy-ethyl)-phenyl]-1H-pyridazin-4-one] | 26 nM

More lines, in order of falling IC50, values ahead:

Row | IC50 | SMILES
7 | 38 nM | CNC(=O)c1cccc(-n2ccc(=O)c(-c3ccnn3-c3ccccc3F)n2)c1 [Example 293, 3-{3-[2-(2-Fluoro-phenyl)-2H-pyrazol-3-yl]-4-oxo-4H-pyridazin-1-yl}-N-methyl-benzamide]
8 | 17 nM | O=c1ccn(-c2cccc(S(=O)(=O)C(F)(F)F)c2)nc1-c1ccnn1-c1ccccc1 [Example 281, 3-(2-Phenyl-2H-pyrazol-3-yl)-1-(3-trifluoromethanesulfonyl-phenyl)-1H-pyridazin-4-one]
9 | 4 nM | O=c1ccn(-c2cccc(O)c2)nc1-c1ccnn1-c1ccc2c(c1)OCCO2 [Example 277, 3-[2-(2,3-Dihydro-benzo[1,4]dioxin-6-yl)-2H-pyrazol-3-yl]-1-(3-hydroxy-phenyl)-1H-pyridazin-4-one]

Reference: patent US8178538B2, “Pyridazinones” (Hoffmann-La Roche Inc., priority 2008, dated 2012)
